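Growth conditions: 96-well plates. Treatment: test compound, 48 hours, 5 concentrations. Analysis: linear interpolation between bracketing concentrations; unreached endpoints set to highest concentration. GI50 marks 50% less growth.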 The source made the active and inactive calls. Cut-off read from the data, not from the text of the source: active = GI50 up to about 1.1 µM and inactive = higher.
Tests used:
Assay in all cases: NCI-60 cell line screen, 48 h
[1] = test system: CAKI-1
[2] = test system: HL-60
[3] = test system: HOP-62
[4] = test system: IGROV-1
[5] = test system: MDA-MB-435
[6] = test system: Malme-3M
[7] = test system: NCI-H23
[8] = test system: NCI/ADR-RES
[9] = test system: OVCAR-3
[10] = test system: OVCAR-5
[11] = test system: OVCAR-8
[12] = test system: RPMI-8226
[13] = test system: RXF 393
[14] = test system: SF-268
[15] = test system: SK-OV-3
[16] = test system: SNB-19
[17] = test system: SNB-75
[18] = test system: SR
[19] = test system: SW-620
[20] = test system: UO-31

SMILES | GI50 [1] | GI50 [2] | GI50 [3] | GI50 [4] | GI50 [5] | GI50 [6] | GI50 [7] | GI50 [8] | GI50 [9] | GI50 [10] | GI50 [11] | GI50 [12] | GI50 [13] | GI50 [14] | GI50 [15] | GI50 [16] | GI50 [17] | GI50 [18] | GI50 [19] | GI50 [20]
N#CC(c1ccccc1)N(CCc1ccccc1)C(=O)c1ccccc1 (stereo not given) | > 100 µM (inactive) | > 100 µM (inactive) | 34 µM (inactive) | > 74 µM (inactive) | > 100 µM (inactive) | > 72.1 µM (inactive) | 71.9 µM (inactive) | 42.9 µM (inactive) | > 100 µM (inactive) | > 100 µM (inactive) | 38.7 µM (inactive) | > 100 µM (inactive) | > 52.1 µM (inactive) | 30.2 µM (inactive) | 53.3 µM (inactive) | 26.2 µM (inactive) | 12.7 µM (inactive) | > 100 µM (inactive) | > 100 µM (inactive) | > 74.6 µM (inactive)
CCOP(=O)(OCC)/C(=C/n1c(=S)[nH]c2ccccc21)C(=O)OC | > 100 µM (inactive) | > 100 µM (inactive) | > 100 µM (inactive) | > 100 µM (inactive) | > 100 µM (inactive) | > 100 µM (inactive) | > 100 µM (inactive) | > 100 µM (inactive) | 0.0311 µM (active) | > 100 µM (inactive) | > 100 µM (inactive) | > 100 µM (inactive) | > 100 µM (inactive) | > 100 µM (inactive) | > 100 µM (inactive) | – | 34.4 µM (inactive) | > 100 µM (inactive) | > 100 µM (inactive) | –
COc1ccc([C@H]2CC(=O)C[C@H](c3ccc(OC)cc3)C23C(=O)c2ccccc2C3=O)cc1 | 3.06 µM (inactive) | 2.33 µM (inactive) | 6.25 µM (inactive) | 5.28 µM (inactive) | 1.95 µM (inactive) | 5 µM (inactive) | 26.1 µM (inactive) | 1.94 µM (inactive) | 2.97 µM (inactive) | 12.6 µM (inactive) | 9.75 µM (inactive) | 4.54 µM (inactive) | 2.92 µM (inactive) | 6.76 µM (inactive) | 3.97 µM (inactive) | 5.35 µM (inactive) | 2.9 µM (inactive) | 3.28 µM (inactive) | 3.53 µM (inactive) | 17.3 µM (inactive)
CC1=NN2CCC(=O)N=C2S1 | > 100 µM (inactive) | > 100 µM (inactive) | > 100 µM (inactive) | > 100 µM (inactive) | > 100 µM (inactive) | > 100 µM (inactive) | > 100 µM (inactive) | > 100 µM (inactive) | > 100 µM (inactive) | > 100 µM (inactive) | > 100 µM (inactive) | > 100 µM (inactive) | > 100 µM (inactive) | > 100 µM (inactive) | > 100 µM (inactive) | > 100 µM (inactive) | > 100 µM (inactive) | > 100 µM (inactive) | > 100 µM (inactive) | –
CN1C(=O)c2ccc3ccccc3c2C1=O | > 100 µM (inactive) | 28.1 µM (inactive) | > 100 µM (inactive) | > 100 µM (inactive) | > 100 µM (inactive) | – | > 100 µM (inactive) | > 100 µM (inactive) | > 100 µM (inactive) | > 100 µM (inactive) | > 100 µM (inactive) | > 100 µM (inactive) | 30.8 µM (inactive) | > 100 µM (inactive) | > 100 µM (inactive) | > 100 µM (inactive) | 27.9 µM (inactive) | > 100 µM (inactive) | > 100 µM (inactive) | > 100 µM (inactive)
CC(C)[C@@H]1NC(=O)[C@@H]2N=C(O[C@H]2C)[C@H](C(C)C)NC(=O)C2N=C1O[C@H]2C | > 100 µM (inactive) | > 100 µM (inactive) | > 100 µM (inactive) | > 100 µM (inactive) | > 100 µM (inactive) | > 100 µM (inactive) | > 100 µM (inactive) | > 100 µM (inactive) | > 100 µM (inactive) | > 100 µM (inactive) | > 100 µM (inactive) | > 100 µM (inactive) | > 100 µM (inactive) | > 100 µM (inactive) | – | > 100 µM (inactive) | > 100 µM (inactive) | > 100 µM (inactive) | > 100 µM (inactive) | > 100 µM (inactive)
O=C1/C(=C/c2ccc([N+](=O)[O-])cc2)CNC/C1=C\c1ccc([N+](=O)[O-])cc1 | 1.79 µM (inactive) | 0.0944 µM (active) | 4.55 µM (inactive) | 1.84 µM (inactive) | 10.4 µM (inactive) | 46.5 µM (inactive) | 4.62 µM (inactive) | 5.09 µM (inactive) | 2.45 µM (inactive) | 22.8 µM (inactive) | 3.13 µM (inactive) | 0.382 µM (active) | 12.2 µM (inactive) | 1.65 µM (inactive) | 48 µM (inactive) | 2.27 µM (inactive) | 2.6 µM (inactive) | 0.241 µM (active) | 0.638 µM (active) | 6.17 µM (inactive)

Reference: ChEMBL document CHEMBL1201862, “PubChem BioAssay data set” (2004)
